Consider four compounds from PMC6484020, “Discovery of selective activators of PRC2 mutant EED-I363M” (Scientific Reports, 2019).

The target of experiment [1] is T1, PRC2-WT (EED/EZH2/SUZ12) (Homo sapiens, UniProt O75530+Q15910).
T1 construct: the full lengths of two components of the PRC2 complex, EED(1–441) and EZH2(1–751); EED(1–441) and EZH2(1–751) were cloned into pFastBac-Dual; made in house; host or cells: Sf9 insect cells (baculovirus co-infection)
Briefly: Methyltransferase scintillation proximity assay, H3 (21-44) peptide substrate. Type of experiment: biochemical. The conditions noted are these: for effect on catalytic activity of PRC2-WT: H3 peptide substrate, compound up to 100 µM, normalized to activity without compound; for kcat, H3(21–44), PRC2-WT: in the presence of 20 µM compound, peptide substrate, mean ± SD, n = 3. How it is done: (§1) Methyltransferase activity assay for WT PRC2 (EED/EZH2/SUZ12) or mutant PRC2-EED-I363M (EED/EZH2/SUZ12) was performed by monitoring the incorporation of tritium-labeled methyl group to lysine 27 of H3 (21–44) peptide using Scintillation Proximity Assay (SPA) or to human nucleosome using a filter-based assay. The enzymatic reactions were performed at 23 °C with 1 hour incubation of 10 µl reaction mixture in 20 mM Tris-HCl, pH 8, 5 mM DTT, and 0.01% Triton X-100 containing 2 µM of ^3H-SAM (Cat.# NET155V250UC; Perkin Elmer; www.perkinelmer.com), 1 µM of biotinylated H3 (21–44), 20 nM PRC2-WT or PRC2-mutant. To stop the reactions, 10 µL of 7.5 M Guanidine hydrochloride was added, followed by 200 µl of buffer (20 mM Tris, pH 8.0), mixed and transferred to a 96-well Streptavidin coated Flash-plate (Cat. # SMP410A001PK, PerkinElmer, http://www.perkinelmer.ca). After mixing, the mixtures in Flash-plate were incubated for 2 hours and the CPM counts were measured using Topcount plate reader (Perkin Elmer, www.perkinelmer.com).
(§2) The CPM counts in the absence of compound for each dataset were defined as 100% activity. In the absence of the enzyme, the CPM counts in each data set were defined as background (0%). All enzymatic reactions were performed in triplicate and the data were analyzed by GraphPad Prism 7 software.
(§3) Supplementary Figure S5. Testing the effect of 9 compounds on activity of WT- and EED-I363M mutant PRC2 complexes. Activities of WT- and mutant-PRC2 in the presence of each compound are normalized to activity of each protein complex in the absence of compound as 100%.
Experiments were performed using 20 nM of each WT or mutant PRC2 trimeric (EED/EZH2/SUZ12) complexes, 2 µM 3H-SAM, 1 µM biotin-H3 (21-44), and up to 100 µM of compounds, 20 mM Tris-HCl pH 8.0, 5 mM DTT and 0.01% Triton X-100. […]
(§4) Supplementary Figure S7. Determination of kcat values for WT- and EED- I363M mutant trimeric PRC2 complexes in the presence of activators. The kcat values were determined using (A) H3 (21-44) in the presence of 20 µM of each compound or (B) human nucleosome as a substrate in the presence of 200 µM of each compound. Experiments were […]
(§5) performed in triplicate under the following assay conditions:
(§6) (A) Peptide as substrate: 20 nM wildtype or EED-I363M mutant PRC2 (EED/EZH2/SUZ12), 2 µM biotinylated-H3 (21-44) peptide, various concentrations of 3H-SAM (up to 5 µM). […]
(§7) Reactions with both substrates were incubated for 30 min at 23°C in 20 mM Tris-HCl pH 8.0, 5

Experiment [2] has as its target T2, PRC2-EED-I363M (EED/EZH2/SUZ12) (Homo sapiens, UniProt O75530+Q15910, I363M).
T2 construct: the full lengths of two components of the PRC2 complex, EED(1–441) and EZH2(1–751); EED(1–441) and EZH2(1–751) were cloned into pFastBac-Dual; made in house; host or cells: Sf9 insect cells (baculovirus co-infection)
The experiment is described as above. Type of experiment: biochemical. The conditions noted are these: for EC50: 20 nM enzyme, 5 µM 3H-SAM, 2 µM biotin-H3 (21-44), 30 min, 23 °C, read-out: EC50 for activation of PRC2-EED-I363M; for EC50 / effect on catalytic activity of PRC2-EED-I363M: compound up to 100 µM; for increase of PRC2-EED-I363M kcat values: 20 µM compound, peptide as substrate; for effect on catalytic activity of PRC2-EED-I363M: H3 peptide substrate, normalized to activity without compound; for kcat, H3(21–44), PRC2-EED-I363M: in the presence of 20 µM compound, peptide substrate, mean ± SD, n = 3. The protocol: as §1, §2, §3
Experiments were performed using 20 nM of each WT or mutant PRC2 trimeric (EED/EZH2/SUZ12) complexes, 2 µM 3H-SAM, 1 µM biotin-H3 (21-44), and up to 100 µM of compounds, 20 mM Tris-HCl pH 8.0, 5 mM DTT and 0.01% Triton X-100.
Supplementary Figure S6. EC50 determination for activators. The EC50 values were determined […]
PRC2 mutant (EED/EZH2/SUZ12), 5 µM 3H-SAM, 2 µM biotin-H3 (21-44) and compound concentrations up to 100 µM. Reactions were incubated for 30 min at 23°C in 20 mM Tris-HCl pH 8.0, 5 mM DTT, 0.01% Triton X-100). Experiments were performed in triplicate. Data shown […]
as §4, §5, §6, §7

Experiment [3] concerns the target T2, PRC2-EED-I363M (EED/EZH2/SUZ12). Briefly: Filter-based methyltransferase assay, human nucleosome substrate. Type of experiment: biochemical. The conditions noted are these: for increase of PRC2-EED-I363M kcat values: human nucleosomes as substrate; for kcat, Human nucleosome, PRC2-EED-I363M: in the presence of 200 µM compound, nucleosome substrate, mean ± SD, n = 3. The protocol:
(§8) Figure 3 Effect of compound 1, 2 and 4 on activity of PRC2-WT and PRC2-EED-I363M. Effect of the selected compounds on activity of PRC2-WT and PRC2-EED-I363M mutant were assessed using human nucleosome as a substrate. Experiments were performed in triplicate using 200 nM of enzyme, 2 µM 3H-SAM and 5 µM human nucleosome and 200 µM compounds incubated for 30 min at 23 °C in 20 mM Tris-HCl pH 8.0, 5 mM DTT, 0.01% Triton X-100.
(§9) A filter-based assay was used for human nucleosome as a substrate. The reactions were carried out at 23 °C with 0.5 hour incubation of 10 µl reaction mixture in 20 mM Tris-HCl, pH 8, 5 mM DTT, and 0.01% Triton X-100 containing 2 µM of ^3H-SAM (Cat.# NET155V250UC; Perkin Elmer; www.perkinelmer.com), 5 µM of human nucleosome, 200 nM PRC2-WT or PRC2 mutant. To stop the reactions, 50 µl of 10% TCA was added, mixed and transferred to filter-plates (Millipore; Cat.# MSFBN6B10; www.millipore.com). Plates were centrifuged at 2000 rpm (Allegra X-15R - Beckman Coulter, Inc.) for 2 min followed by two additional 10% TCA wash and one ethanol wash (180 µl) followed by centrifugation. Plates were dried and 100 µl MicroO (MicroScint-O; Cat.# 6013611, Perkin Elmer; www.perkinelmer.com) was added to each well, centrifuged and removed. 70 µl of MicroO was added again and CPM was measured using Topcount plate reader.
as §2, §4
(§10) performed in triplicate under the following assay conditions: […]
(§11) (B) Human nucleosome as a substrate: 200 nM wildtype or EED-I363M mutant trimeric PRC2 (EED/EZH2/SUZ12), various concentrations of 3H-SAM (up to 5 µM) and 5 µM human […]
as §7

Experiment [4] deals with T1, PRC2-WT (EED/EZH2/SUZ12). The description is as above. Type of experiment: biochemical. The conditions noted are these: for kcat, Human nucleosome, PRC2-WT: in the presence of 200 µM compound, nucleosome substrate, mean ± SD, n = 3. How it is done: as §8, §9, §2, §4, §10, §11, §7
Experiment [5] has as its target wildtype EED. The conditions noted are these: cited from earlier work.

“Also recorded” adds a separate entry of the source. Where a SMILES comes first, the peptide text is derived from it. [ ]: non-standard residue; d: D form. Lys(Me3) = C[N+](C)(C)CCCC[C@H](N)C(=O)O

T2 sequence (O75530 whole entry I363M): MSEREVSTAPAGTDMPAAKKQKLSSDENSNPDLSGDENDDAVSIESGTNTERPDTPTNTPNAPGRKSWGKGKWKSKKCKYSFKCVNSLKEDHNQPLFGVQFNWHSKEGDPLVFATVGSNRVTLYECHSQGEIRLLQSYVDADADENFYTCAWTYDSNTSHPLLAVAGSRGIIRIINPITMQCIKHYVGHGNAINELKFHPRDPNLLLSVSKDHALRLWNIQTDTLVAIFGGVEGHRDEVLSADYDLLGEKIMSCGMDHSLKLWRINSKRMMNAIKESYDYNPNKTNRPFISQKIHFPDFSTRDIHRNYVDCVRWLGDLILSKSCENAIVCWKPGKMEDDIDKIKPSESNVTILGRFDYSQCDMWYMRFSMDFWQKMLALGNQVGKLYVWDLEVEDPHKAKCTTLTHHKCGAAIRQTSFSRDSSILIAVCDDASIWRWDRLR
T2 sequence (Q15910 1-751 isoform Q15910-2, stated change not applied): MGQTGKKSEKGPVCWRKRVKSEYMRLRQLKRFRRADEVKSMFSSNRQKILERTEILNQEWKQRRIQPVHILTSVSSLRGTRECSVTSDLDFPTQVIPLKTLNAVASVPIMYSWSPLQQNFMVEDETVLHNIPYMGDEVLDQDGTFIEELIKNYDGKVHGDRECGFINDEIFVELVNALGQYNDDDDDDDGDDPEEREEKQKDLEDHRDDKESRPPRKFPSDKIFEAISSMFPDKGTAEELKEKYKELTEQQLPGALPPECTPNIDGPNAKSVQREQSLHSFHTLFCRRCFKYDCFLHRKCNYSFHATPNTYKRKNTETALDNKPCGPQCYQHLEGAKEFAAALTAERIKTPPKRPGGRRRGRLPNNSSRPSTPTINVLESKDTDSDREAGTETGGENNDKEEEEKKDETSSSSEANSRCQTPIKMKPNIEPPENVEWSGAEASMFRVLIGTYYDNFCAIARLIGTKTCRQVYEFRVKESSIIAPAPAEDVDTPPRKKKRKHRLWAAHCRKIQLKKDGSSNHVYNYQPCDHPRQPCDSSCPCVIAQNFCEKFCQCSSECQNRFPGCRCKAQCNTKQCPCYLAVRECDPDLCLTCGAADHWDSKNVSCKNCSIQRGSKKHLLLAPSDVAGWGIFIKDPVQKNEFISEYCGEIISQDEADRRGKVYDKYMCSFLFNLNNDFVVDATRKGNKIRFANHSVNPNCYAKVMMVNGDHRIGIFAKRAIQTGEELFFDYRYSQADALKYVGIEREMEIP
T2 sequence (Q15022 whole entry partner): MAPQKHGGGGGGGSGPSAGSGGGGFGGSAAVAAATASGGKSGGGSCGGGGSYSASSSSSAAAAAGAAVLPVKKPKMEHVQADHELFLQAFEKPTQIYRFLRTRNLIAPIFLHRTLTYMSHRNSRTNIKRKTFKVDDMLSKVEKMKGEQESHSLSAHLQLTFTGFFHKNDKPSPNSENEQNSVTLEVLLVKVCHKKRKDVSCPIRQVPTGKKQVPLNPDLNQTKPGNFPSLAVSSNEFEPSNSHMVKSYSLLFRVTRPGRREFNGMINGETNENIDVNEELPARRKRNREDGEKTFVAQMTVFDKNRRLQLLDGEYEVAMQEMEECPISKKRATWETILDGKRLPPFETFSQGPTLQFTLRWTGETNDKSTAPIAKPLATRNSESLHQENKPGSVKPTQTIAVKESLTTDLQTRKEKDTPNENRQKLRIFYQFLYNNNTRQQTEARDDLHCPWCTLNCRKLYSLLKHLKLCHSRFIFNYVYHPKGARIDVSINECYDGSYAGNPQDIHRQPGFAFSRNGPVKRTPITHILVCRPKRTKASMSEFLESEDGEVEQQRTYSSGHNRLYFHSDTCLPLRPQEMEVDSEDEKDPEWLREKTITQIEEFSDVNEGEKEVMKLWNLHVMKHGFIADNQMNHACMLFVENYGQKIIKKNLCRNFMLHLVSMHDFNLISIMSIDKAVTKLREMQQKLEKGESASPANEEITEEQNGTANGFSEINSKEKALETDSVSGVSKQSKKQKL
T1 sequence (O75530 whole entry): as the sequence (O75530 whole entry I363M) above, with M363I counted along it
T1 sequence (Q15910 1-751 isoform Q15910-2): as the sequence (Q15910 1-751 isoform Q15910-2, stated change not applied) above
T1 sequence (Q15022 whole entry partner): as the sequence (Q15022 whole entry partner) above

Turning to `CC(C)C[C@H](NC(=O)[C@H](Cc1ccccc1)NC(=O)[C@H](CCCC[N+](C)(C)C)NC(=O)[C@H](CCCNC(=N)N)NC(=O)[C@@H]1CCCN1)C(N)=O` [compound 1] (H-PR[Lys(Me3)]FL-NH2), in experiment [1], the “effect on catalytic activity of PRC2-WT” value is on record as “minimal effects” and the “kcat, H3(21–44), PRC2-WT” value was 0.00694 ± 0.00014 s⁻¹. Further, in experiment [2], the EC50 came out at 2300 ± 400 nM; the “increase of PRC2-EED-I363M kcat values” was “more than 2 fold”; the “effect on catalytic activity of PRC2-EED-I363M” value (shortened to “effect … of PRC2-EED-I363M”) is listed as “significant increase”; the “kcat, H3(21–44), PRC2-EED-I363M” value worked out at 0.00556 ± 0.00028 s⁻¹. Besides, in experiment [3], the “increase of PRC2-EED-I363M kcat values” is on record as “about 2 fold” and the “kcat, Human nucleosome, PRC2-EED-I363M” value worked out at 0.000361 ± 2.8e-06 s⁻¹. The “kcat, Human nucleosome, PRC2-WT” value in experiment [4] came out at 0.000472 ± 1.4e-05 s⁻¹.

As to `CC(C)CC(NC(=O)C(Cc1ccccc1)NC(=O)C(CCCC[N+](C)(C)C)NC(=O)C1CC2CCCCC2N1CCCCN)C(N)=O` (stereo not drawn) [compound 3], the “effect on catalytic activity of PRC2-WT” value in experiment [1] is reported as “highest inhibition; also recorded: dose-dependent inhibitory potency”. In experiment [2], the “effect … of PRC2-EED-I363M” value was “does not show any activator effect”.

Turning to `CC(C)C[C@H](NC(=O)[C@H](Cc1ccccc1)NC(=O)[C@H](CCCCN(C)C(C)C)NC(=O)[C@@H]1C[C@@H]2CCCC[C@@H]2N1)C(N)=O` [UNC5114, reference compound], the “effect on catalytic activity of PRC2-WT” value in experiment [1] is recorded as “antagonized”. The “effect … of PRC2-EED-I363M” value in experiment [2] was “minimal effects”. In experiment [5], the Kd was 700 to 1100 nM.

Regarding `CC(C)C[C@H](NC(=O)[C@H](Cc1ccccc1)NC(=O)[C@H](CCCC[N+](C)(C)C)NC(=O)[C@H](CCCCN)NC(=O)[C@@H]1CCCN1)C(N)=O` [compound 2] (H-PK[Lys(Me3)]FL-NH2), in experiment [1], the “effect on catalytic activity of PRC2-WT” value is reported as “minimal effects” and the “kcat, H3(21–44), PRC2-WT” value worked out at 0.00667 ± 0.00014 s⁻¹. Also, in experiment [2], the EC50 is 2400 ± 400 nM; the “increase of PRC2-EED-I363M kcat values” was “more than 2 fold”; the “effect … of PRC2-EED-I363M” value is reported as “significant increase”; the “kcat, H3(21–44), PRC2-EED-I363M” value came out at 0.00583 ± 0.00028 s⁻¹. In addition, in experiment [3], the “increase of PRC2-EED-I363M kcat values” is “about 2 fold” and the “kcat, Human nucleosome, PRC2-EED-I363M” value worked out at 0.000417 ± 5.6e-06 s⁻¹. In experiment [4] (human nucleosome as substrate), the “effect on PRC2-WT catalytic activity” value is “weak inhibitor”. Also, the “kcat, Human nucleosome, PRC2-WT” value in experiment [4] is 0.000444 ± 1.1e-05 s⁻¹.
